Results taken from patent publication US20160256504A1, “[…] COMPOSITION CONTAINING […] MUSHROOM [[…] EDODES] […] CULTURE AND NATTO BACTERIA [BACILLUS SUBTILIS NATTO] CULTURE” (HK Biotech Co., LTD., priority 2014, published 2016).

Experiments:
[1] = tested on: plasma plasminogen activator inhibitor-1 (PAI-1); assay: Plasma PAI-1 content in SHR after 4-week treatment; type: in vivo, rat
blood homocysteine = details: rats, hyperhomocysteinemia induced by guanidinoacetic acid injection, EA injected; cited from earlier work
NO = NO content in NAME-induced hypertensive rat model; type: in vivo; details: NAME-induced hypertensive rats
Procedure: (§1) The biochemical markers relating to the blood pressure were measured, by collecting blood and organs of the rats used in the experimental examples 1 (non-genetic NAME-induced hypertension) and 3 (4-week-treatments on SHR). […] And from the rats of the experimental example 3, ACE activity and the activity of plasma plasminogen activator inhibitor-1 (PAI-1) of the plasma and the livers were measured. […] The following TABLE 5 is describing NO content and NOS activity of shiitake mushroom mycelium culture and natto bacteria culture mixture in the NAME-induced hypertensive rat model.

NOS = NOS activity in NAME-induced hypertensive rat model; type: in vivo; details: NAME-induced hypertensive rats
Procedure: as §1

SMILES: C[C@H](CS)C(=O)N1CCC[C@H]1C(=O)O [CP, captopril]
- Plasma PAI-1 ([1]; 0 week): 113 pg/mL
- Plasma PAI-1 ([1]; 4 weeks): 127 pg/mL

SMILES: Nc1ncnc2c1ncn2C[C@@H](O)[C@@H](O)C(=O)O [EA, eritadenine]
- blood homocysteine (blood homocysteine): reduced

SMILES: NNc1nncc2ccccc12 [hydralazine]
- NO Lung (NO; 0 week): 10 nM/ml
- NO Lung (NO; 4 weeks): 7 nM/ml
- NO Plasma (NO; 0 week): 21 nM/ml
- NO Plasma (NO; 4 weeks): 20 nM/ml
- NOS Aorta (NOS; 0 week): 0.80 NO pmle/mg protein/min
- NOS Aorta (NOS; 4 weeks): 1.08 NO pmle/mg protein/min
- NOS Plasma (NOS; 0 week): 6.0 NO umole/L
- NOS Plasma (NOS; 4 weeks): 8.5 NO umole/L
